Data published in US20150353530A1 (CORTENDO AB (PUBL), priority 2013, published 2015).

Key:
Type in all cases: cell-based
[1] = biological target: T1, recombinant CYP-17 (Homo sapiens, UniProt P05093); assay: Cyp17 assay: AD293 cells over-expressing recombinant CYP-17, 3H-acetic acid release from [21-3H] 17α-hydroxyl-Pregnenolone; conditions: for IC50: AD293 cells, eight concentrations 10 μM to 4.5 nM
T1 construct: expressed in transfected cells
T1 sequence (P05093 1-508): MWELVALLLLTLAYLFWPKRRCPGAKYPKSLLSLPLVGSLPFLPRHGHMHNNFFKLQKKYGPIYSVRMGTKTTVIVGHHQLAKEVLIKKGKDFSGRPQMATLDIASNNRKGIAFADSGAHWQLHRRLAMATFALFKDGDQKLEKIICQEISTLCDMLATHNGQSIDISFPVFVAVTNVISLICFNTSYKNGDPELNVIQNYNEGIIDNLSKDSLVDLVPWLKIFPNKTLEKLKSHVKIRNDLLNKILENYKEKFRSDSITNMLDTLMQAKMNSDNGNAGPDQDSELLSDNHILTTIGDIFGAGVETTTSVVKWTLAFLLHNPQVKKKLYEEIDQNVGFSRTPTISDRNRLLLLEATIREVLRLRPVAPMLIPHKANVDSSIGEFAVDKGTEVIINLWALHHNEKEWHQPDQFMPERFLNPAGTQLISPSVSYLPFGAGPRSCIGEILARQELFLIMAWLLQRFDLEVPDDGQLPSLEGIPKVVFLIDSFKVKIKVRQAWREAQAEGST
Procedure: Cyp17 assay protocol: AD293 cells that stably over-express recombinant CYP-17 were seeded in 96 well plates coated with poly D-lysine (15,000 cell per well) and incubated at 37° C. for 24 hours in Dulbecco's Modified Eagle Medium (DMEM) with Fetal Bovine Serum (FBS) that is stripped of hormones by charcoal treatment. The media is then removed, the cells are washed once with Phosphate buffer saline solution, and 50 μL Dulbecco's Modified Eagle Medium (DMEM) with Fetal Bovine Serum (FBS) that is stripped of hormones by charcoal treatment is added. Compounds of the disclosure are then added to the wells in eight concentration spanning 10 μM to 4.5 nM, and the plates are incubated for an additional 60 minutes at 37° C. [21-^3H] […] The media is then collected, 200 μL of chloroform is added, and the mixture is shaken for 1 hour. The aqueous layer is then separated and analyzed for the presence of ^3H-acetic acid using a Perkin Elmer Topcount NXT to determine IC50s of the compounds of the disclosure.

[2] = biological target: T2, recombinant CYP-11 (Homo sapiens, UniProt P15538); assay: Cyp11 assay: AD293 cells over-expressing recombinant CYP-11, cortisol formation from 11-deoxycortisol by LC/MS; conditions: eight concentrations 10 μM to 4.5 nM
T2 construct: expressed in transfected cells
T2 sequence (P15538 25-503): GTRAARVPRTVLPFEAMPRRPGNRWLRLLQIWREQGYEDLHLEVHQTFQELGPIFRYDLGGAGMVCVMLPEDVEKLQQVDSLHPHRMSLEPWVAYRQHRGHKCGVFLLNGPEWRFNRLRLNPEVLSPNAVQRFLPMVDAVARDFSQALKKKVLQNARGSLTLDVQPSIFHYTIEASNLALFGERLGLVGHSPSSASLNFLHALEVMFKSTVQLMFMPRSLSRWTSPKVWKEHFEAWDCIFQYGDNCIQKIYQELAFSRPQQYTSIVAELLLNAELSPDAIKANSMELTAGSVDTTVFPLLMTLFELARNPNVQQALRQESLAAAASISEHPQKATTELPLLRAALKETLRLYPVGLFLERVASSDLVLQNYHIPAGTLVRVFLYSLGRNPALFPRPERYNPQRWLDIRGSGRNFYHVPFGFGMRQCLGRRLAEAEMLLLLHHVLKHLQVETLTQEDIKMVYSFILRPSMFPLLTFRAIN
Procedure: (§1) AD293 cells that stably over-express recombinant CYP-11 were seeded in 96 well plates coated with poly D-lysine (15,000 cell per well) and incubated at 37° C. for 24 hours in Dulbecco's Modified Eagle Medium (DMEM) with Fetal Bovine Serum (FBS) that is stripped of hormones by charcoal treatment. The media is then removed, the cells are washed once with Phosphate buffer saline solution, and 50 μL Dulbecco's Modified Eagle Medium (DMEM) with Fetal Bovine Serum (FBS) that is stripped of hormones by charcoal treatment is added. Compounds of the disclosure are then added to the wells in eight concentration spanning 10 μM to 4.5 nM, and the plates are incubated for an additional 60 minutes at 37° C. 11-deoxycortisol is then added (2.0 μM) and the plates are incubated for an additional 12 hours at 37° C. After incubation, 50 uL of the supernatant (medium) is transferred into a fresh plate and 150 uL of an acetonitrile solution containing 200 ng/ml of Telmisartan is added. The sample is mixed and then placed in a centrifuge at 2000 rpm for 5 minutes.

[3] = biological target: T3, recombinant CYP-21 (Homo sapiens, UniProt P08686); assay: Cyp21 assay: AD293 cells over-expressing recombinant CYP-21, 11-deoxycortisol formation from 17α-OH Progesterone by LC/MS; conditions: eight concentrations 10 μM to 4.5 nM
T3 construct: expressed in transfected cells
T3 sequence (P08686 1-495): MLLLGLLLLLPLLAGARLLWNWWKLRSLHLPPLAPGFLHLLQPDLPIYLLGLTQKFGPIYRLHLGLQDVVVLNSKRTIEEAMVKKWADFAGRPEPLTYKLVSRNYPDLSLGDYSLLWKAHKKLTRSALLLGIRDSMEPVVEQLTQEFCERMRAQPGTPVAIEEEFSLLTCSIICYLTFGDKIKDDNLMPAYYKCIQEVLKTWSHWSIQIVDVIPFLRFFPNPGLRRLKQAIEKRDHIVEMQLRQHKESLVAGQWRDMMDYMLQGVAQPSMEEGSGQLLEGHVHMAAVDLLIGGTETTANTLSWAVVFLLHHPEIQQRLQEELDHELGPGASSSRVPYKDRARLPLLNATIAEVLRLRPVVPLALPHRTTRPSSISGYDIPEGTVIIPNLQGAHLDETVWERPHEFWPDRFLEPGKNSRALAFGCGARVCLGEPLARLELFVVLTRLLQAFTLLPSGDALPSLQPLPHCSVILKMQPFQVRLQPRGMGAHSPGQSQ
Procedure: as §1, with “Cyp21 assay protocol: AD293” for “AD293”, “CYP-21” for “CYP-11”, “(10,000” for “(15,000”, “17α-OH Progesterone” for “11-deoxycortisol”, “(1.0” for “(2.0”, “45 minutes” for “12 hours”

| SMILES | inhibition at 0.1 µM ([1]; AD293, 4 h, read-out: Cyp17 % @ 0.1 μM (printed in the Cyp17 IC50 column)) [%] | IC50 [2] [nM] | IC50 [3] [nM] | IC50 [1] [nM] |
| --- | --- | --- | --- | --- |
| COC(=O)N1CCN(c2ccc(OC[C@@H]3CO[C@@](Cn4ccnc4)(c4ccc(Cl)cc4Cl)O3)cc2)CC1 (racemic) [Entry 1] | 83 | 100 | 160 |  |
| COCCOC(=O)N1CCN(c2ccc(OC[C@@H]3CO[C@@](Cn4ccnc4)(c4ccc(Cl)cc4Cl)O3)cc2)CC1 (racemic) [Entry 2] |  | 100 | 230 | 100 |
| CN(C)C(=O)N1CCN(c2ccc(OC[C@@H]3CO[C@@](Cn4ccnc4)(c4ccc(Cl)cc4Cl)O3)cc2)CC1 (racemic) [Entry 3] |  | 100 |  | 100 |
| Clc1ccc([C@]2(Cn3ccnc3)OC[C@@H](COc3ccc(N4CCN(C5=NCCO5)CC4)cc3)O2)c(Cl)c1 (racemic) [Entry 34] |  | 148 | 423 | 30 |
| CCNC(=O)N1CCN(c2ccc(OC[C@@H]3CO[C@@](Cn4ccnc4)(c4ccc(Cl)cc4Cl)O3)cc2)CC1 [Entry 12] |  | 52 | 690 | 35 |
| CCOC(=O)CNC(=O)N1CCN(c2ccc(OC[C@@H]3CO[C@@](Cn4ccnc4)(c4ccc(Cl)cc4Cl)O3)cc2)CC1 [Entry 13] |  | 66 | 710 | 25 |
| CCNC(=O)N1CCN(c2ccc(OC[C@H]3CO[C@](Cn4ccnc4)(c4ccc(Cl)cc4Cl)O3)cc2)CC1 [Entry 14] |  | 500 |  | 43 |
| CCOC(=O)CNC(=O)N1CCN(c2ccc(OC[C@H]3CO[C@](Cn4ccnc4)(c4ccc(Cl)cc4Cl)O3)cc2)CC1 [Entry 15] |  | 530 | 2460 | 310 |
| COC(=O)[C@@H](NC(=O)N1CCN(c2ccc(OC[C@@H]3CO[C@@](Cn4ccnc4)(c4ccc(Cl)cc4Cl)O3)cc2)CC1)C(C)C [Entry 16] |  | 100 | 244 | 10 |
| COC(=O)[C@H](Cc1ccccc1)NC(=O)N1CCN(c2ccc(OC[C@@H]3CO[C@@](Cn4ccnc4)(c4ccc(Cl)cc4Cl)O3)cc2)CC1 [Entry 17] |  | 100 | 360 | 43 |
| COC(=O)[C@@H](NC(=O)N1CCN(c2ccc(OC[C@H]3CO[C@](Cn4ccnc4)(c4ccc(Cl)cc4Cl)O3)cc2)CC1)C(C)C [Entry 18] |  | 110 | 720 | 137 |
| COC(=O)[C@H](Cc1ccccc1)NC(=O)N1CCN(c2ccc(OC[C@H]3CO[C@](Cn4ccnc4)(c4ccc(Cl)cc4Cl)O3)cc2)CC1 [Entry 19] |  | 240 | 740 | 250 |
| O=S(=O)(CC(F)(F)F)N1CCN(c2ccc(OC[C@@H]3CO[C@@](Cn4ccnc4)(c4ccc(Cl)cc4Cl)O3)cc2)CC1 [Entry 20] |  | 70 | 78 | 610 |
| CCCS(=O)(=O)N1CCN(c2ccc(OC[C@@H]3CO[C@@](Cn4ccnc4)(c4ccc(Cl)cc4Cl)O3)cc2)CC1 [Entry 22] |  | 91 | 128 | 8 |
| CC(C)CS(=O)(=O)N1CCN(c2ccc(OC[C@@H]3CO[C@@](Cn4ccnc4)(c4ccc(Cl)cc4Cl)O3)cc2)CC1 [Entry 23] |  | 388 | 249 | 45 |
| O=S(=O)(CCC(F)(F)F)N1CCN(c2ccc(OC[C@@H]3CO[C@@](Cn4ccnc4)(c4ccc(Cl)cc4Cl)O3)cc2)CC1 [Entry 27] |  | 10000 | 373 | 240 |
| O=S(=O)(CC(F)F)N1CCN(c2ccc(OC[C@@H]3CO[C@@](Cn4ccnc4)(c4ccc(Cl)cc4Cl)O3)cc2)CC1 [Entry 29] |  | 280 | 80 | 11 |
| N=C(N)N1CCN(c2ccc(OC[C@@H]3CO[C@@](Cn4ccnc4)(c4ccc(Cl)cc4Cl)O3)cc2)CC1 [Entry 33] |  | 1900 | 10000 | 340 |
